Results published in ChEMBL document CHEMBL1158170, “Synthesis, characterization, antioxidant activity and DNA-binding studies of two rare earth(III) complexes with naringenin-2-hydroxy benzoyl hydrazone ligand” (Eur J Med Chem, 2008).

Columns and labels:
DNA [1] = experiment: Binding affinity to calf thymus DNA by fluorescence spectroscopy; assay type: nucleic-acid assay; conditions: Bos taurus
DNA [2] = experiment: Binding affinity to calf thymus DNA by electronic absorption spectroscopy; assay type: nucleic-acid assay; conditions: Bos taurus
[3] = Antioxidant activity at pH 7.4 by hydroxyl radical scavenging assay; assay type: functional

Row | SMILES | Kq (DNA [1]) | Kb (DNA [2]) | IC50 [3]
1 | O=C(N/N=C1\CC(c2ccc(O)cc2)Oc2cc(O)cc(O)c21)c1ccccc1O (stereo not drawn) | 0.93 ×10⁴ /M | 1.6 ×10⁴ /M | 
2 | OC[C@@H](O)[C@@H](O)[C@H](O)[C@H](O)CO [MANNITOL] |  |  | 9.6 mM
